Source: patent EP2662079A1 (Ordway Research Institute, Inc., priority 2012, dated 2013)
Where “and” joins values, the source holds several entries; their conditions need not be identical. Identical values can stand only once.

What was measured:
[1] = tested on: GL261 murine brain tumor cells; assay: Clonogenic survival after single doses of 250 kVp x-rays; format: cell-based; conditions: for α (Gy^-1) / β (Gy^-2): LQ; for SF2: survival at 2 Gy
Experimental: To irradiate 25 cm^2 flasks, an x-ray machine was used and (Philips 250 kVp Therapeutic X-ray Machine, Einhoven, Germany) operated at 250 kVp and 15 mA with added filtration of 0.4 mm Thoreaus filter. The target to source distance was approximately 30 cm. Dose rates were measured using an R-meter (Victoreen R-meter, Cleveland, OH), and converted to absorbed (Gy) doses using appropriate temperature, pressure, and R to Gy conversion factors. The dose rate was 1 Gy per min. Flasks were irradiated at ambient temperature.
Experimental cells and FCs were added to treatment flasks before irradiation, and were then allowed to attach to the surfaces of the flask and incubated at 37°C for 1 hour. After incubation the flasks were irradiated using the 250 kVp x-ray source.
For […] analyses, survival data lying at or below 36.8% survival were analyzed by using the log fractional survival (log FxS) versus dose (D). Data were fit using linear regression analysis (SigmaPlot, V. 10, Systat Corp., Point Richmond, CA) to obtain the Y-intercept (or n, the extrapolation number) and the slope (1/D0), and their 95% confidence limits. (See Goldstein, A. In: Biostatistics, New York, The MacMillan Co., 1964, p. 140-146).. The Do value (Gy) is defined as the inverse of the slope, and the corrected Dq value (Gy) was then defined using the relationship: Dq(Gy) = ln n x D0 (Gy) [formula] The 95% confidence limits on Dq were defined using error propagation. (See Chase, et al., In: Principles of Radioisotope Methodology. Minneapolis, MN. Burgess Publ. Co., 1962, p. 68, 87-90).
For LQ analyses, data lying between a fractional survival of 1.00 and 0.05 were used. The fractional survival data at each dose were transformed using the relationship (-In FxS/D) and plotted against dose (D). A regression analysis was performed to yield the LQ equation along with their 95% confidence limit values using a t-table with the appropriate (N-1) degrees of freedom. (See Goldstein, A. In: Biostatistics, New York, The MacMillan Co., 1964, p. 140-146).
To determine the Tetrac modification factor (TMF), the survival at 2 Gy obtained for control cells was divided by the survival at 2 Gy for Tetrac treated cells. The 95% confidence limits on the ratio were determined using error propagation techniques. (See Chase, et al. In: Princiiples of Radioisotope Methodology, Minneapolis, MN, Burgress Publ. Co., 1962, p. 68, 87-90).

MDA-MB-231 cells = assay: Cell proliferation in perfusion bellows cell culture system; format: cell-based; conditions: Homo sapiens, 10^-6 M (Tetrac equivalent), added at day 0, by day 9
Experimental: Tetrac and nanoparticulate Tetrac. Tetrac was custom-synthesized by Peptido GMBH (Bembach, Germany). The proprietary Tetrac nanoparticle was custom-synthesized by covalently-bonding of the outer ring hydroxyl of Tetrac to PLGA via an intervening linker. […] Cell culture for definition of effects of Tetrac formulations on tumor cell proliferation. MDA-MB-231 cells were purchased from ATCC (Manassas, VA). Cells were maintained until use in DMEM that contained 10% FBS. The incubator conditions were 5% CO2/95% 02 and 37° C. The action of unmodified Tetrac and nanoparticulate on MDA-MB-231 cells was determined in a perfusion bellows cell culture system we have recently described for quantitating pharmaceutical agent pharmacodynamics in vitro. (See Lin et al., J Steroid Biochem Mol Biol 113: 182-188 (2009)). In brief, the cell culture system is a disposable bioreactor capable of high density cell culture for studies of anti-cancer drugs. Bellows-induced alternate flow of culture medium and air through porous matrices where cells are grown provides a relatively low shear, high aeration, foam-free culture environment. Medium level is raised and lowered to submerge and expose matrices to create a dynamic interface between air and media on the cell surface. […] Flakes thereafter were sampled at regular intervals (Figure 44), subjected to trypsinization and the harvested cells counted. […]

[2] = tested on: Human medullary carcinoma cells (TT); format: in vivo
Source text: Cells and cell culture. […] Tetrac versus Tetrac NP distribution in h-MTC. […] Penicillin streptomycin (1%) was present in both culture media. […] Cell implantation in nude mice. […] Water and food were provided ad libitum.
Treatment of animals with unmodified or nanoparticulate Tetrac. […] Estimation of tumor response to Tetrac or nanoparticulate Tetrac. […] Statistical analysis for CAM and xenograft studies. […] Statistical significance was defined as P <0.05. RNA microarray analysis.

[3] = Exponential Phase (with Tetrac)
[4] = Unfed plateau Phase (with Tetrac)
[5] = SHMT, Unfed plateau Phase (with Tetrac)

## O=C(O)Cc1cc(I)c(Oc2cc(I)c(O)c(I)c2)c(I)c1 [Tetrac, 3,3',5,5'-tetraiodothyroacetic acid]
[1]; [3]
  α (Gy^-1): 0.930 Gy^-1
  β (Gy^-2): 0.003 Gy^-2
  SF2: 14.2%
[1]; [4]
  α (Gy^-1): 1.157 Gy^-1
  β (Gy^-2): 0.066 Gy^-2
  SF2: 7.62 (6.82 - 8.51) %
[1]; SHMT, Exponential phase (with Tetrac)
  D0 (Gy): 1.08 Gy and 1.08 (0.09). Gy
[1]; [5]
  D0 (Gy): 0.75 Gy
  Dq (Gy): 0.00 Gy
[1]; Tetrac 2µM, graded doses of 250 kVp x-rays (Figure 60)
  sensitization of oxic and hypoxic cells: sensitize both oxic and hypoxic cells equally
[1]; Tetrac treated cells (non-Tetrac treated 32%)
  survival at 2 Gy: 13%
[1]; exponentially growing cells
  increase of the Do value: 15%
  reduction of the Dq value: 100%
  reduction of the extrapolation number: 93%
[1]; plateau phase cells
  reduction of n: 93%
  reduction of the Do: 6%
  reduction of the Dq: 100%
MDA-MB-231 cells
  inhibition at 1 µM: > 30%
[2]; Tetrac 10 mg/kg i.p., nanoparticulate Tetrac 1 mg/kg i.p., end of study
  reduction of tumor mass compared to controls: 65-80%
[2]; Tetrac 10 mg/kg or Tetrac NP 1 mg/kg i.p. daily for 3 weeks
  decrease of tumor tissue hemoglobin content: 66%
[2]; Tetrac 10 mg/kg or Tetrac NP 1 mg/kg i.p. daily for 21 days
  reduction in tumor-associated neovascularization (hemoglobin levels in tumor tissue): 70-80%
[2]; Tetrac 10 mg/kg or Tetrac NP 1 mg/kg i.p. daily, over 21 days
  tumor size: < 100 mm^3
[2]; after initiation of treatment
  time to detected reduction in tumor size: ≤ 2 days
